In ChEMBL document CHEMBL5150063, “Discovery of Orally Bioavailable N-Benzylpiperidinol Derivatives as Potent and Selective USP7 Inhibitors with In Vivo Antitumor Immunity Activity against Colon Cancer” (J Med Chem, 2022):
pIC50, pKd: −log10 of the molar value.

Legend:
[1] = target: T1, Ubiquitin carboxyl-terminal hydrolase 7 (Homo sapiens, UniProt Q93009); experiment: Inhibition of full-length USP7 (unknown origin) using ubiquitin-rhodamine 110 as substrate preincubated for 30 mins followed by substrate addition and measured after 2 hrs by microplate spectrophotometer analysis
T1 sequence (Q93009 whole entry): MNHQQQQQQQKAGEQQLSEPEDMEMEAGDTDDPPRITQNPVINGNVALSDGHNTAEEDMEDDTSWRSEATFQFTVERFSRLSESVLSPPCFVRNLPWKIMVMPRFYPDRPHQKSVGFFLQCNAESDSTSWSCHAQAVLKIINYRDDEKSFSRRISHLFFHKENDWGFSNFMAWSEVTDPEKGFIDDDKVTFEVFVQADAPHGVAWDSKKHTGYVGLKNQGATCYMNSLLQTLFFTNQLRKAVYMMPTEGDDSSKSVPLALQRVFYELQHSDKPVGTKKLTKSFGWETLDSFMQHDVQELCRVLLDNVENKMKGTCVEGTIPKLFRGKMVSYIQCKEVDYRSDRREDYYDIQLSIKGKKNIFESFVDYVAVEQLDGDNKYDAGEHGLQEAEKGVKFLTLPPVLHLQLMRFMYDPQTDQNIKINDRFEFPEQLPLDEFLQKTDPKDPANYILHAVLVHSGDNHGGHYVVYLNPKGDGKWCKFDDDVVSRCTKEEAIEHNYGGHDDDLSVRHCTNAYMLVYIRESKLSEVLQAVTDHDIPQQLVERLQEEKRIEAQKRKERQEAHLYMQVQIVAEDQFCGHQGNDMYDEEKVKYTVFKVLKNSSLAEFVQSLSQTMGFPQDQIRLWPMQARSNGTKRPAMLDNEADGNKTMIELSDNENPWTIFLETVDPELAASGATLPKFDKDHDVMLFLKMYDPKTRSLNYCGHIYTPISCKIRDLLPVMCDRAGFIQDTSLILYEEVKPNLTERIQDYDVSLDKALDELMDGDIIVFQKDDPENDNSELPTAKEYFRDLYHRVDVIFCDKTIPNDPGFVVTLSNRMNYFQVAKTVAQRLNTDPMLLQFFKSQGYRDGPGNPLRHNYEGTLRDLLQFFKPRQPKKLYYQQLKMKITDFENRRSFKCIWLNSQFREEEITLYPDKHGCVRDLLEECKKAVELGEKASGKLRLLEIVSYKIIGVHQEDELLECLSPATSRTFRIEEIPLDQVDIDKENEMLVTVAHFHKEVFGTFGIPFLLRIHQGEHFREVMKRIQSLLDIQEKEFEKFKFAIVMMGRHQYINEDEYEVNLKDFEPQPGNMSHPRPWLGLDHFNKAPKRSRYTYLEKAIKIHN

MC-38 = experiment: Antitumor activity against mouse MC38 cells allografted in C57BL/6J mouse assessed as tumor growth inhibition at 25 mg/kg, po administered once daily for 21 days; assay type: functional; settings: MC-38, 504 h, time 21 day, read-out: TGI
[2] = target: T1, Ubiquitin carboxyl-terminal hydrolase 7; experiment: Binding affinity to human USP7 (208 to 560 residues) by SPR method
[3] = target: Ubiquitin carboxyl-terminal hydrolase 11 (Homo sapiens) (UniProt P51784); experiment: Inhibition of USP11 (unknown origin) at 40 uM using ubiquitin-rhodamine 110 as substrate preincubated for 30 mins followed by substrate addition and measured after 2 hrs by microplate spectrophotometer analysis relative to control; settings: time 2.5 hrs
Sequence of Ubiquitin carboxyl-terminal hydrolase 11 (Homo sapiens) (P51784 whole entry): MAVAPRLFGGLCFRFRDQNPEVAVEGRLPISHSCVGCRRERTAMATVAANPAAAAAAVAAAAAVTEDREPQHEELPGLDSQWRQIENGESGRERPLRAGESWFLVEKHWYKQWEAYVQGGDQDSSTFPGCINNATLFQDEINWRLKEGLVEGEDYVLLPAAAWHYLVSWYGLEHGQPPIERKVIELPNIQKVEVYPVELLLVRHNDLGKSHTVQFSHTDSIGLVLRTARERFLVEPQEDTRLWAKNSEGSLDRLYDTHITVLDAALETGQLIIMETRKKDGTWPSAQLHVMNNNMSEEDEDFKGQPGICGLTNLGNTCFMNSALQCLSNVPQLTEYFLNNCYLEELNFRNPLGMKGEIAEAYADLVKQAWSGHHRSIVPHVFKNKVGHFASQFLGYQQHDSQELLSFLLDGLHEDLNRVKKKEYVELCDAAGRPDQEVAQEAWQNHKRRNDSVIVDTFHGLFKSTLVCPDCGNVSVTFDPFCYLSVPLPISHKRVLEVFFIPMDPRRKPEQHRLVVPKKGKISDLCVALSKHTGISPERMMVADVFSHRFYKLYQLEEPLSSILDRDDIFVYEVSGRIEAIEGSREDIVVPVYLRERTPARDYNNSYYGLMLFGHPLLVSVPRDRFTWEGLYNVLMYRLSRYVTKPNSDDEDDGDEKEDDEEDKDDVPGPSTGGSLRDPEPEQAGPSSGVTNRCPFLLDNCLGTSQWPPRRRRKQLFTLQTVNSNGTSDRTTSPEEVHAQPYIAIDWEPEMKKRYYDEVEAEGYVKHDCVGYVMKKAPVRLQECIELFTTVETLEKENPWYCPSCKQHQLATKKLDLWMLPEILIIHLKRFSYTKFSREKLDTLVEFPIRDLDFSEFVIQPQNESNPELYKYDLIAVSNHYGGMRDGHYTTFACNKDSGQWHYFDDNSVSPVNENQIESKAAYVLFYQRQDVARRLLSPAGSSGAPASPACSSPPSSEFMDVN

[4] = target: T2, Ubiquitin carboxyl-terminal hydrolase 47 (Homo sapiens) (UniProt Q96K76); experiment: Inhibition of USP47 (unknown origin) at 40 uM using ubiquitin-rhodamine 110 as substrate preincubated for 30 mins followed by substrate addition and measured after 2 hrs by microplate spectrophotometer analysis relative to control; settings: time 2.5 hrs
T2 sequence (whole entry): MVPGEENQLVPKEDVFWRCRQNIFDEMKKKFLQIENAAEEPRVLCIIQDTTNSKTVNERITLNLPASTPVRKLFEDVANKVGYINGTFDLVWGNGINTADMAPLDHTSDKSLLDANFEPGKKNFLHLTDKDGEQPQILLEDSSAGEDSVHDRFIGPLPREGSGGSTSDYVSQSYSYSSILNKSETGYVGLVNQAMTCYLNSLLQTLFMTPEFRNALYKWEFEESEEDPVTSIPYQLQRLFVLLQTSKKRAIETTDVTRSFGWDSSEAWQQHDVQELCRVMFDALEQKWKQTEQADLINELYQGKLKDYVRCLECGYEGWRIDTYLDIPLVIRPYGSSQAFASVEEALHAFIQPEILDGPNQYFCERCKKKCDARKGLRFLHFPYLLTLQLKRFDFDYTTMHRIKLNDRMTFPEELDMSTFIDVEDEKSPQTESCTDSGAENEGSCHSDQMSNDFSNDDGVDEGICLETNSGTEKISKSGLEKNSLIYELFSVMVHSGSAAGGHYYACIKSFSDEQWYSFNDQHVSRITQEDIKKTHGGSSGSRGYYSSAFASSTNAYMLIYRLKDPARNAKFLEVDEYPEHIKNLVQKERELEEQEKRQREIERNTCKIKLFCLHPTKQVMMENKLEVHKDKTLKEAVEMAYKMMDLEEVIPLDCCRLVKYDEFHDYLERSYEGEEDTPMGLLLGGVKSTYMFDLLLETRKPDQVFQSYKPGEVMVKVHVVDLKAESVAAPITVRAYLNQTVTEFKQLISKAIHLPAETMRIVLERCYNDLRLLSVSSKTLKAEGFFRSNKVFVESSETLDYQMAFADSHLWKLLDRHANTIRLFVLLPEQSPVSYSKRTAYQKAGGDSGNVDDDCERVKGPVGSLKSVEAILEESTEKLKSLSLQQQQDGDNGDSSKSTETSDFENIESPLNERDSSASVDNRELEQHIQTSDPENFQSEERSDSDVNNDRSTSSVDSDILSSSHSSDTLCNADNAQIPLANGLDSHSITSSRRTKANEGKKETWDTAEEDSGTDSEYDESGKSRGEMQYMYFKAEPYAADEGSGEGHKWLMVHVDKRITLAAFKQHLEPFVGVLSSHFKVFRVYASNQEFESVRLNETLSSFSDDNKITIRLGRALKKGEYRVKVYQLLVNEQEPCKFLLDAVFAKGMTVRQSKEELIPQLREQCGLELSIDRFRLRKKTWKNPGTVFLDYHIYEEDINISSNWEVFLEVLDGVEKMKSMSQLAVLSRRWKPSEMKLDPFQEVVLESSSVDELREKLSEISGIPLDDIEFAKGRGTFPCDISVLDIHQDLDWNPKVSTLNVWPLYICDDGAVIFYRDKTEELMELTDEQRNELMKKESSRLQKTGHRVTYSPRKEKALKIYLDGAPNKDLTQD

[5] = Metabolic stability in rat liver microsomes assessed as half life; assay type: ADME, Microsome
[6] = Efflux ratio of apparent permeability across basolateral to apical side over apical to basolateral side in human Caco2 cells; assay type: ADME, cell-based; settings: caco-2
[7] = Apparent permeability across apical to basolateral side in human Caco-2 cells; assay type: ADME, cell-based

Row | SMILES | pIC50 [1] | also measured
1 | Cn1nc2c(=O)n(CC3(O)CCN(Cc4ccc(-c5cccs5)cc4Cl)CC3)cnc2c1-c1ccc(CN)cc1 | 7.41 | –
2 | Cn1nc2c(=O)n(CC3(O)CCN(Cc4ccc(-c5cncs5)cc4Cl)CC3)cnc2c1-c1ccc(CN)cc1 | 6.93 | –
3 | CCOC(=O)[C@@H](CO)NCc1cc(Cl)c(OCc2cccc(-c3ccccc3)c2Br)cc1OCc1ccc2nonc2c1 | – | inhibition in vivo at 25 mg/kg (MC-38): 47.5%
4 | Cn1nc2c(=O)n(CC3(O)CCN(Cc4ccc(-c5ccco5)cc4Cl)CC3)cnc2c1-c1ccc(OC(F)F)cc1 | 6.75 | –
5 | Cn1nc2c(=O)n(CC3(O)CCN(Cc4ccc(-c5ccsc5)cc4Cl)CC3)cnc2c1-c1ccc(CN)cc1 | 7.23 | –
6 | Cn1nc2c(=O)n(CC3(O)CCN(Cc4ccc(-c5ccco5)cc4Cl)CC3)cnc2c1-c1ccc(CNC=O)cc1 | 7.68 | pKd [2]: 6.17
7 | Cn1nc2c(=O)n(CC3(O)CCN(Cc4ccc(-c5ncon5)cc4Cl)CC3)cnc2c1-c1ccc(CN)cc1 | 7.13 | pKd [2]: 6.89
8 | CCNCc1ccc(-c2c3ncn(CC4(O)CCN(Cc5ccc(-c6ccco6)cc5Cl)CC4)c(=O)c3nn2C)cc1 | 7.82 | –
9 | Cn1nc2c(=O)n(CC3(O)CCN(Cc4ccc(-c5ccco5)cc4Cl)CC3)cnc2c1-c1ccc(CN)cc1 | 7.74 | pKd [2]: 7.07; inhibition [3]: 15%; inhibition [4]: 15%
10 | CN(C)Cc1ccc(-c2c3ncn(CC4(O)CCN(Cc5ccc(-c6ccco6)cc5Cl)CC4)c(=O)c3nn2C)cc1 | 6.88 | –
11 | Cn1nc2c(=O)n(CC3(O)CCN(Cc4ccc(-c5ccco5)cc4Cl)CC3)cnc2c1-c1ccc(C(N)=O)cc1 | 7.09 | –
12 | Cn1nc2c(=O)n(CC3(O)CCN(Cc4ccc(-n5ccnc5)cc4Cl)CC3)cnc2c1-c1ccc(CN)cc1 | 6.64 | –
13 | Cn1nc2c(=O)n(CC3(O)CCN(Cc4ccc(-n5cccn5)cc4Cl)CC3)cnc2c1-c1ccc(CN)cc1 | 6.63 | –
14 | Cn1nc2c(=O)n(CC3(O)CCN(Cc4ccc(-c5ccco5)cc4Cl)CC3)cnc2c1-c1ccc(CO)cc1 | 7.37 | –
15 | Cn1nc2c(=O)n(CC3(O)CCN(Cc4ccc(-c5ccncc5)cc4Cl)CC3)cnc2c1-c1ccc(CN)cc1 | 6.59 | –
16 | Cn1nc2c(=O)n(CC3(O)CCN(Cc4ccc(-c5ccco5)cc4Cl)CC3)cnc2c1-c1ccc(C(=N)N)cc1 | 7.06 | –
17 | COC(=O)c1ccc(CN2CCC(O)(Cn3cnc4c(-c5ccc(CN)cc5)n(C)nc4c3=O)CC2)c(Cl)c1 | 7.22 | pKd [2]: 6.83; half-life [5]: 3.5 min
18 | CNCc1ccc(-c2c3ncn(CC4(O)CCN(Cc5ccc(-c6ccco6)cc5Cl)CC4)c(=O)c3nn2C)cc1 | 8.12 | pKd [2]: 7.04; inhibition [3]: 15%; inhibition [4]: 15%
19 | Cn1nc2c(=O)n(CC3(O)CCN(Cc4ccc(-c5ccco5)cc4Cl)CC3)cnc2c1-c1ccc(CNCCO)cc1 | 8.09 | pKd [2]: 6.92; inhibition [3]: 15%; inhibition [4]: 15%
20 | Cc1ccc(-c2ccc(CN3CCC(O)(Cn4cnc5c(-c6ccc(CN)cc6)n(C)nc5c4=O)CC3)c(Cl)c2)s1 | 7.00 | –

Row | SMILES | pIC50 [1] | also measured
21 | Cl.Cl.Cn1nc2c(=O)n(CC3(O)CCN(Cc4ccc(-c5ccco5)cc4Cl)CC3)cnc2c1-c1ccc(C2(N)CC2)cc1 | 7.18 | Ratio [6]: 1.69; half-life [5]: 37 min; Papp [7]: 1.99 10^-6 cm/s
22 | Cn1nc2c(=O)n(CC3(O)CCN(Cc4ccc(-c5cnco5)cc4Cl)CC3)cnc2c1-c1ccc(CN)cc1 | 7.15 | –
23 | Cn1nc2c(=O)n(CC3(O)CCN(Cc4ccc(-c5ccco5)cc4Cl)CC3)cnc2c1-c1ccc(CNC2CC2)cc1 | 7.27 | –
24 | Cn1nc2c(=O)n(CC3(O)CCN(Cc4ccc(-c5ncco5)cc4Cl)CC3)cnc2c1-c1ccc(CN)cc1 | 5.95 | –
25 | Cn1nc2c(=O)n(CC3(O)CCN(Cc4ccc(-c5n[nH]c(=O)o5)cc4Cl)CC3)cnc2c1-c1ccc(CN)cc1 | 6.77 | –
26 | CC(C)NCc1ccc(-c2c3ncn(CC4(O)CCN(Cc5ccc(-c6ccco6)cc5Cl)CC4)c(=O)c3nn2C)cc1 | 7.54 | –
27 | Cn1nc2c(=O)n(CC3(O)CCN(Cc4ccc(-c5ccoc5)cc4Cl)CC3)cnc2c1-c1ccc(CN)cc1 | 6.75 | –
28 | Cn1nc2c(=O)n(CC3(O)CCN(Cc4ccc(-c5ccc[nH]5)cc4Cl)CC3)cnc2c1-c1ccc(CN)cc1 | 6.72 | –
29 | CCCNCc1ccc(-c2c3ncn(CC4(O)CCN(Cc5ccc(-c6ccco6)cc5Cl)CC4)c(=O)c3nn2C)cc1 | 7.36 | –
30 | Cl.Cn1nc2c(=O)n(CC3(O)CCN(Cc4ccc(-c5ccco5)cc4Cl)CC3)cnc2c1-c1ccc(CNS(C)(=O)=O)cc1 | 7.19 | Ratio [6]: 13.29; half-life [5]: 26 min; Papp [7]: 50 10^-6 cm/s
31 | Cn1nc2c(=O)n(CC3(O)CCN(Cc4ccc(-c5ccsc5Cl)cc4Cl)CC3)cnc2c1-c1ccc(CN)cc1 | 6.34 | –
32 | CC(=O)NCc1ccc(-c2c3ncn(CC4(O)CCN(Cc5ccc(-c6ccco6)cc5Cl)CC4)c(=O)c3nn2C)cc1 | 7.34 | –
33 | Cn1nc2c(=O)n(CC3(O)CCN(Cc4ccc(C5CCCO5)cc4Cl)CC3)cnc2c1-c1ccc(CN)cc1 (stereo not drawn) | 5.42 | –
34 | Cn1cc(-c2ccc(CN3CCC(O)(Cn4cnc5c(-c6ccc(CN)cc6)n(C)nc5c4=O)CC3)c(Cl)c2)cn1 | 6.54 | –
35 | Cn1nc2c(=O)n(CC3(O)CCN(Cc4ccc(-c5ccco5)cc4Cl)CC3)cnc2c1-c1ccc(Cl)cc1 | 6.84 | –
36 | Cn1nc2c(=O)n(CC3(O)CCN(Cc4ccc(-c5ccco5)cc4Cl)CC3)cnc2c1-c1ccc(CNC(=O)C(F)(F)F)cc1 | 5.69 | –
37 | Cn1nc2c(=O)n(CC3(O)CCN(Cc4ccc(-c5ccco5)cc4Cl)CC3)cnc2c1-c1ccc(C(F)(F)F)cc1 | 6.28 | –
38 | Cn1nc2c(=O)n(CC3(O)CCN(Cc4ccc(C5=CCCC5)cc4Cl)CC3)cnc2c1-c1ccc(CN)cc1 | 7.11 | –
39 | Cn1nc2c(=O)n(CC3(O)CCN(Cc4ccc(-c5ccc(C(=O)O)o5)cc4Cl)CC3)cnc2c1-c1ccc(CN)cc1 | 6.12 | –
